Laboratory results as given in ChEMBL document CHEMBL5338747, “Discovery of Quaternized Pyridine-Thiazole-Pleuromutilin Derivatives with Broad-Spectrum Antibacterial and Potent Anti-MRSA Activity” (J Med Chem, 2023).
Converted amounts (≈) assume the structure as drawn. The source made the active and inactive calls. No cut-off for these calls is given here.

Tests used:
Staphylococcus aureus [1] = assay: Antibacterial activity against methicillin-resistant Staphylococcus aureus ATCC 33591 assessed as inhibition of bacterial growth incubated for 24 hrs by broth microdilution method; type: functional
Staphylococcus aureus [2] = assay: Antibacterial activity against methicillin-resistant Staphylococcus aureus ATCC 43300 assessed as inhibition of bacterial growth incubated for 24 hrs by broth microdilution method; type: functional
Staphylococcus aureus [3] = assay: Antibacterial activity against […] assessed as inhibition of bacterial growth incubated for 24 hrs by broth microdilution method; type: functional; details: ATCC 29213
[4] = test system: Staphylococcus epidermidis; assay: Antibacterial activity against methicillin-resistant Staphylococcus epidermidis ATCC 51625 assessed as inhibition of bacterial growth incubated for 24 hrs by broth microdilution method; type: functional
Acinetobacter baumannii [5] = assay: Antibacterial activity against Acinetobacter baumannii ATCC 19606 assessed as inhibition of bacterial growth incubated for 24 hrs by broth microdilution method; type: functional
Salmonella enterica = assay: Antibacterial activity against Salmonella enterica ATCC 14028 assessed as inhibition of bacterial growth incubated for 24 hrs by broth microdilution method; type: functional
Escherichia coli [6] = assay: Antibacterial activity against Escherichia coli ATCC 25922 assessed as inhibition of bacterial growth incubated for 24 hrs by broth microdilution method; type: functional
Escherichia coli [7] = assay: Antibacterial activity against Escherichia coli CMCC 44103 assessed as inhibition of bacterial growth incubated for 24 hrs by broth microdilution method; type: functional
Staphylococcus aureus [8] = assay: Antibacterial activity against methicillin-resistant Staphylococcus aureus 171 assessed as inhibition of bacterial growth incubated for 24 hrs by broth microdilution method; type: functional
Staphylococcus aureus [9] = assay: Antibacterial activity against methicillin-resistant Staphylococcus aureus 575 assessed as inhibition of bacterial growth incubated for 24 hrs by broth microdilution method; type: functional
Staphylococcus aureus [10] = assay: Antibacterial activity against methicillin-resistant Staphylococcus aureus 206 assessed as inhibition of bacterial growth incubated for 24 hrs by broth microdilution method; type: functional
Staphylococcus aureus [11] = assay: Antibacterial activity against methicillin-resistant Staphylococcus aureus 222 assessed as inhibition of bacterial growth incubated for 24 hrs by broth microdilution method; type: functional
Staphylococcus aureus [12] = assay: Antibacterial activity against methicillin-resistant Staphylococcus aureus 596 assessed as inhibition of bacterial growth incubated for 24 hrs by broth microdilution method; type: functional
Enterococcus = assay: Antibacterial activity against vancomycin-resistant Enterococcus 80 assessed as inhibition of bacterial growth incubated for 24 hrs by broth microdilution method; type: functional
Pseudomonas aeruginosa = assay: Antibacterial activity against multidrug-resistant Pseudomonas aeruginosa 126 assessed as inhibition of bacterial growth incubated for 24 hrs by broth microdilution method; type: functional
Klebsiella pneumoniae = assay: Antibacterial activity against multidrug-resistant Klebsiella pneumoniae 893 assessed as inhibition of bacterial growth incubated for 24 hrs by broth microdilution method; type: functional
Acinetobacter baumannii [13] = assay: Antibacterial activity against carbapenem-resistant Acinetobacter baumannii 882 assessed as inhibition of bacterial growth incubated for 24 hrs by broth microdilution method; type: functional
[14] = Aqueous solubility of the compound in physiological saline measured after 12 hrs by UV spectrophotometric analysis; type: physicochemical
[15] = Cytotoxicity against human HEK293 cells assessed as reduction in cell viability measured after 48 hrs by CCK8 assay; type: toxicity, cell-based
[16] = Cytotoxicity against human A549 cells assessed as reduction in cell viability measured after 48 hrs by CCK8 assay; type: toxicity, cell-based
[17] = Cytotoxicity against human HepG2 cells assessed as reduction in cell viability measured after 48 hrs by CCK8 assay; type: toxicity, cell-based
Staphylococcus aureus [18] = assay: Antibacterial activity against methicillin-resistant Staphylococcus aureus ATCC 33591 infected in Kunming mouse assessed as reduction in bacterial load in kidney at 10 mg/kg, ip for 2 days starting from 1 hr post-infection by hematoxylin-eosin staining based analysis; type: functional, organism-based; details: time 2.0 day
Staphylococcus aureus [19] = assay: Antibacterial activity against methicillin-resistant Staphylococcus aureus ATCC 33591 infected in Kunming mouse assessed as reduction in bacterial load in liver at 10 mg/kg, ip for 2 days starting from 1 hr post-infection by hematoxylin-eosin staining based analysis; type: functional, organism-based; details: time 2.0 day
Staphylococcus aureus [20] = assay: Antibacterial activity against methicillin-resistant Staphylococcus aureus ATCC 33591 infected in Kunming mouse assessed as reduction in bacterial load in lungs at 10 mg/kg, ip for 2 days starting from 1 hr post-infection by hematoxylin-eosin staining based analysis; type: functional, organism-based; details: time 2.0 day
Staphylococcus aureus [21] = assay: Disruption of biofilm formation in methicillin-resistant Staphylococcus aureus ATCC 33591 assessed as inhibition of biofilm formation at MIC measured after 24 hrs by crystal violet staining based analysis; type: functional
Escherichia coli [22] = assay: Disruption of biofilm formation in Escherichia coli ATCC 25922 assessed as inhibition of biofilm formation at MIC measured after 24 hrs by crystal violet staining based analysis; type: functional
Staphylococcus aureus [23] = assay: Disruption of biofilm formation in methicillin-resistant Staphylococcus aureus ATCC 33591 assessed as inhibition of biofilm formation at 4XMIC measured after 24 hrs by crystal violet staining based analysis; type: functional
Escherichia coli [24] = assay: Disruption of biofilm formation in Escherichia coli ATCC 25922 assessed as inhibition of biofilm formation at 4XMIC measured after 24 hrs by crystal violet staining based analysis; type: functional
Staphylococcus aureus [25] = assay: Antibacterial activity against methicillin-resistant Staphylococcus aureus ATCC 33591 infected in ip dosed Kunming mouse assessed as protection against bacterial infection administered for 7 days starting from 1 hr post-infection; type: functional
Staphylococcus aureus [26] = assay: Antibacterial activity against methicillin-resistant Staphylococcus aureus ATCC 33591 infected in Kunming mouse assessed as animal survival rate at 5 mg/kg, ip for 7 days starting from 1 hr post-infection; type: functional; details: time 7.0 day
[27] = test system: Mesomycoplasma hyopneumoniae; assay: Anti-mycoplasma activity against Mycoplasma hyopneumoniae J NCTC10110 assessed as inhibition of mycoplasma growth measured after 7 days by broth microdilution method; type: functional; details: J NCTC10110, 168 h, time 7 day
[28] = test system: Mesomycoplasma hyopneumoniae; assay: Anti-mycoplasma activity against Mycoplasma hyopneumoniae LH assessed as inhibition of mycoplasma growth measured after 7 days by broth microdilution method; type: functional; details: 168 h, time 7 day
Mesomycoplasma hyorhinis = assay: Anti-mycoplasma activity against Mycoplasma hyorhinis BTS-7 NCTC10130 assessed as inhibition of mycoplasma growth measured after 7 days by broth microdilution method; type: functional; details: BTS-7 NCTC10130, 168 h, time 7 day
[29] = test system: Mycoplasmoides gallisepticum; assay: Anti-mycoplasma activity against Mycoplasma gallisepticum R NCTC10115 assessed as inhibition of mycoplasma growth measured after 7 days by broth microdilution method; type: functional; details: R NCTC10115, 168 h, time 7 day
Mycoplasmopsis synoviae = assay: Anti-mycoplasma activity against Mycoplasma synoviae WVU1853 NCTC10124 assessed as inhibition of mycoplasma growth measured after 7 days by broth microdilution method; type: functional; details: WVU1853 NCTC10124, 168 h, time 7 day
[30] = test system: Mycoplasmoides pneumoniae; assay: Anti-mycoplasma activity against Mycoplasma pneumoniae M129 ATCC15531 assessed as inhibition of mycoplasma growth measured after 7 days by broth microdilution method; type: functional; details: M129 ATCC15531, 168 h, time 7 day
Metamycoplasma hominis = assay: Anti-mycoplasma activity against Mycoplasma hominis PG-21 ATCC23114 assessed as inhibition of mycoplasma growth measured after 7 days by broth microdilution method; type: functional; details: PG-21 ATCC23114, 168 h, time 7 day
Mycoplasma genitalium = assay: Anti-mycoplasma activity against Mycoplasma genitalium G37 ATCC33530 assessed as inhibition of mycoplasma growth measured after 7 days by broth microdilution method; type: functional; details: Mycoplasmoides genitalium, G37 ATCC33530, 168 h; time 7 day

SMILES	MIC (Staphylococcus aureus [1]) [µg/mL]	MIC (Staphylococcus aureus [2]) [µg/mL]	MIC (Staphylococcus aureus [3]) [µg/mL]	MIC [4] [µg/mL]	MIC (Acinetobacter baumannii [5]) [µg/mL]	MIC (Salmonella enterica) [µg/mL]	MIC (Escherichia coli [6]) [µg/mL]	MIC (Escherichia coli [7]) [µg/mL]	MIC (Staphylococcus aureus [8]) [µg/mL]	MIC (Staphylococcus aureus [9]) [µg/mL]	MIC (Staphylococcus aureus [10]) [µg/mL]	MIC (Staphylococcus aureus [11]) [µg/mL]	MIC (Staphylococcus aureus [12]) [µg/mL]	MIC (Enterococcus) [µg/mL]	MIC (Pseudomonas aeruginosa) [µg/mL]	MIC (Klebsiella pneumoniae) [µg/mL]	MIC (Acinetobacter baumannii [13]) [µg/mL]	solubility at 12 h [14] [µM]	CC50 at 48 h [15] [µM]	CC50 at 48 h [16] [µM]	other results
Br.C=C[C@]1(C)C[C@@H](OC(=O)CSc2nc(-c3cc[n+](Cc4ccc([N+](=O)[O-])cc4)cc3)cs2)[C@]2(C)[C@H](C)CC[C@]3(CCC(=O)[C@H]32)[C@@H](C)[C@@H]1O	1	0.5	0.125	2	2	2	1	0.5	64	16	16	2	2	8	8	16	16	754	86.7	> 100	CC50 at 48 h [17]: 75.8 µM
C=C[C@]1(C)C[C@@H](OC(=O)CSC(C)(C)CNC(=O)[C@H](N)C(C)C)[C@]2(C)[C@H](C)CC[C@]3(CCC(=O)[C@H]32)[C@@H](C)[C@@H]1O [VALNEMULIN]	128 (≈ 227 µM)	8 (≈ 14.2 µM)	4 (≈ 7.08 µM)	64 (≈ 113 µM)	2 (≈ 3.54 µM)	64 (≈ 113 µM)	16 (≈ 28.3 µM)	64 (≈ 113 µM)										341 (≈ 193 µg/mL)	65.4	88	Activity (Staphylococcus aureus [18]): Active; Activity (Staphylococcus aureus [19]): Active; Activity (Staphylococcus aureus [20]): Active; CC50 at 48 h [17]: 87.3 µM; inhibition (INH) (Staphylococcus aureus [21]): 38.1%; inhibition (INH) (Escherichia coli [22]): 26.52%; inhibition (INH) (Staphylococcus aureus [23]): 68.59%; inhibition (INH) (Escherichia coli [24]): 64.02%; ED50 (Staphylococcus aureus [25]; ATCC 33591, 168 h, time 7 day): 12.3 mg/kg; Activity (Staphylococcus aureus [25]; time 7.0 day): Dose-Dependent Effect; Activity (Staphylococcus aureus [26]): Active
C=C[C@]1(C)C[C@@H](OC(=O)CSCCN(CC)CC)[C@]2(C)[C@H](C)CC[C@]3(CCC(=O)[C@H]32)[C@@H](C)[C@@H]1O [TIAMULIN]																		227 (≈ 112 µg/mL)			MIC [27]: 0.03 µg/mL (≈ 0.0608 µM); MIC [28]: 0.015 µg/mL (≈ 0.0304 µM); MIC (Mesomycoplasma hyorhinis): 0.03 µg/mL (≈ 0.0608 µM); MIC [29]: 0.125 µg/mL (≈ 0.253 µM); MIC (Mycoplasmopsis synoviae): 2 µg/mL (≈ 4.05 µM); MIC [30]: 0.125 µg/mL (≈ 0.253 µM); MIC (Metamycoplasma hominis): 0.25 µg/mL (≈ 0.506 µM); MIC (Mycoplasma genitalium): 0.03 µg/mL (≈ 0.0608 µM)
C=C[C@]1(C)C[C@@H](OC(=O)CSc2nc(-c3cc[n+](Cc4ccc(OC)cc4)cc3)cs2)[C@]2(C)[C@H](C)CC[C@]3(CCC(=O)[C@H]32)[C@@H](C)[C@@H]1O.[Br-]	1	1	0.5	4	2	0.5	0.5	1	16	32	16	4	8	2	64	64	8	653	95.4	87.4	CC50 at 48 h [17]: > 100 µM
COc1c(N2C[C@@H]3CCCN[C@@H]3C2)c(F)cc2c(=O)c(C(=O)O)cn(C3CC3)c12 [MOXIFLOXACIN]	1 (≈ 2.49 µM)	0.25 (≈ 0.623 µM)	0.062 (≈ 0.154 µM)	0.5 (≈ 1.25 µM)	2 (≈ 4.98 µM)	2 (≈ 4.98 µM)	0.125 (≈ 0.311 µM)	0.25 (≈ 0.623 µM)	32 (≈ 79.7 µM)	8 (≈ 19.9 µM)	4 (≈ 9.96 µM)	0.5 (≈ 1.25 µM)	2 (≈ 4.98 µM)	0.5 (≈ 1.25 µM)	8 (≈ 19.9 µM)	16 (≈ 39.9 µM)	32 (≈ 79.7 µM)				
C=C[C@]1(C)C[C@@H](OC(=O)CSc2nc(-c3cc[n+](Cc4cc(C)cc(C)c4)cc3)cs2)[C@]2(C)[C@H](C)CC[C@]3(CCC(=O)[C@H]32)[C@@H](C)[C@@H]1O.[Br-]	64	128	128	128	8	16	32	32										543			
C=C[C@]1(C)C[C@@H](OC(=O)CS[C@@H]2C[C@H]3CC[C@@H](C2)N3C)[C@]2(C)[C@H](C)CC[C@]3(CCC(=O)[C@H]32)[C@@H](C)[C@@H]1O [RETAPAMULIN]	32 (≈ 61.8 µM)	16 (≈ 30.9 µM)	4 (≈ 7.73 µM)	64 (≈ 124 µM)	4 (≈ 7.73 µM)	128 (≈ 247 µM)	32 (≈ 61.8 µM)	32 (≈ 61.8 µM)	128 (≈ 247 µM)	64 (≈ 124 µM)	128 (≈ 247 µM)	32 (≈ 61.8 µM)	32 (≈ 61.8 µM)	> 128	128 (≈ 247 µM)	64 (≈ 124 µM)	64 (≈ 124 µM)	289 (≈ 150 µg/mL)	83.8	> 100	CC50 at 48 h [17]: 76.5 µM
